According to patent EP0365837B1 (DANA FARBER CANCER INSTITUTE, priority 1988, dated 1990):
“And” between values parts separate entries of the source, which are not always exact repeats. Identical values can stand only once. Like-named read-outs stand apart in the source and are kept apart here. *1 amine or outer side, *2 acyl side, *3 side chain or, on linkers, in order; H or OH if unused. Where a SMILES comes first, the peptide text is derived from it. Bridges are numbered along the chain shown (N, C = ends). Roman numbers before positions name the chains, in order. [ ]: non-standard residue; d: D form. Actinocin(9to1) = Cc1c2oc3c(C)ccc(C(=O)[*:1])c3nc-2c(C(=O)[*:2])c(N)c1=O; NMeV = CN[C@H](C(=O)O)C(C)C; Sar = CNCC(=O)O

Tests used:
[1] = test system: human umbilical vein endothelial cells (HUVEC); assay: Radioimmune assay of ICAM-1 expression (¹²⁵I RR1/1 binding) on HUVEC; assay type: cell-based
Protocol: In order to measure ICAM-1 expression, a radioimmune assay was developed. In this assay, purified RR1/1 was iodinated using iodogen to a specific activity of 10 »Ci/»g. Endothelial cells were grown in 96 well plates and treated as described for each experiment. The plates were cooled at 4°C by placing in a cold room for 0.5-1 hr, not immediately on ice. The monolayers were washed 3x with cold complete media and then incubated 30 m at 4°C with ¹²⁵I RR1/1. The monolayers were then washed 3x with complete media. The bound ¹²⁵I was released using 0.1 N NaOH and counted. The specific activity of the ¹²⁵I RR1/1 was adjusted using unlabeled RR1/1 to obtain a linear signal over the range of antigen densities encountered in this study. Non-specific binding was determined in the presence of a thousand fold excess of unlabeled RR1/1 and was subtracted from total binding to yield the specific binding.

[2] = test system: human dermal fibroblasts; assay type: cell-based
Protocol: The kinetics of interleukin 1 and gamma interferon effects on ICAM-1 expression on dermal fibroblasts were determined using the ¹²⁵I goat anti-mouse IgG binding assay of Dustin, M.L. et al. (J. Immunol. 137:245-254 (1986); which reference is herein incorporated by reference). To perform this binding assay, human dermal fibroblasts were grown in a 96-well microtiter plate to a density of 2-8 x 10⁴ cells/well (0.32 cm²). The cells were washed twice with RPMI 1640 medium supplemented as described in Example 1. The cells were additionally washed once with Hanks Balanced Salt Solution (HBSS), 10 mM HEPES, 0.05% NaN₃ and 10% heat-inactivated fetal bovine serum. Washing with this binding buffer was done at 4°C. To each well was added 50 »l of the above-described binding buffer and 50 »l of the appropriate hybridoma supernatant with X63 and W6/32 as the negative and positive controls, respectively. After incubation for 30 minutes at 4°C, with gentle agitation, the wells were washed twice with binding buffer, and the second antibody ¹²⁵I-goat anti-mouse IgG, was added at 50 nCi in 100 »l. The ¹²⁵I-goat anti-mouse antibody was prepared by using Iodogen (Pierce) according to the method of Fraker, P.J. et al. (Biochem. Biophys. Res. Commun. 80:849 (1978)). After 30 minutes at 4°C, the wells were washed twice with 200 »l of binding buffer and the cell layer was solubilized by adding 100 »l of 0.1 N NaOH. This and a 100 »l wash were counted in a Beckman 5500 gamma counter. The specific counts per minute bound was calculated as [cpm with monoclonal antibody]-[cpm with X63]. All steps, including induction with specific reagents, were carried out in quadruplicate.

[3] = test system: Peripheral blood mononuclear cells (PBMC); details: Table 19, R x S; R6-5-D6 8 ng/ml, Azathioprine 1 ng/ml; no inhibitor 49,570
[4] = test system: Peripheral blood mononuclear cells (PBMC); assay: cells; details: Homo sapiens
[5] = test system: JY cells; assay: LFA-1 dependent aggregation of JY cells (qualitative and quantitative aggregation assays); assay type: cell-based; details: 50 ng/ml of PMA; quantitative assay, 200 rpm, 2 hours; SD = 8%, N = 6
Protocol: In order to assess the extent of cellular adhesion, aggregation assays were employed. Cell lines used in such assays were washed two times with RPMI 1640 medium containing 5 mM Hepes buffer (Sigma Chemical Co., St. Louis) and resuspended to a concentration of 2 x 10⁶ cells/ml. Added to flat-bottomed, 96-well microtiter plates (No. 3596; Costar, Cambridge, MA) were 50 »l of appropriate monoclonal antibody supernatant or 50 »l of complete medium with or without purified monoclonal antibodies, 50 »l of complete medium containing 200 ng/ml of the phorbol ester phorbol myristate acetate (PMA) and 100 »l of cells at a concentration of 2 x 10⁶ cells/ml in complete medium. This yielded a final concentration of 50 ng/ml PMA and 2 x 10⁵ cells/well. Cells were allowed to settle spontaneously, and the degree of aggregation was scored at various time points. […] In order to obtain a more quantitative estimate of cellular adhesion, reagents and cells were added to 5 ml polystyrene tubes in the same order as above. Tubes were placed in a rack on a gyratory shaker at 37°C. […] Percent aggregation was determined by the following equation: [formula] […]
As a second means of measuring adhesion, the quantitative assay described in Example 2 was used. […]

[6] = biological target: ICAM-1-LFA-1 adhesion (Homo sapiens, UniProt P05107+P20701); details: Marlin, S.D., et al., cell 51:813-819 (1987); cited from earlier work
ICAM-1-LFA-1 adhesion, sequence (P20701 26-1170): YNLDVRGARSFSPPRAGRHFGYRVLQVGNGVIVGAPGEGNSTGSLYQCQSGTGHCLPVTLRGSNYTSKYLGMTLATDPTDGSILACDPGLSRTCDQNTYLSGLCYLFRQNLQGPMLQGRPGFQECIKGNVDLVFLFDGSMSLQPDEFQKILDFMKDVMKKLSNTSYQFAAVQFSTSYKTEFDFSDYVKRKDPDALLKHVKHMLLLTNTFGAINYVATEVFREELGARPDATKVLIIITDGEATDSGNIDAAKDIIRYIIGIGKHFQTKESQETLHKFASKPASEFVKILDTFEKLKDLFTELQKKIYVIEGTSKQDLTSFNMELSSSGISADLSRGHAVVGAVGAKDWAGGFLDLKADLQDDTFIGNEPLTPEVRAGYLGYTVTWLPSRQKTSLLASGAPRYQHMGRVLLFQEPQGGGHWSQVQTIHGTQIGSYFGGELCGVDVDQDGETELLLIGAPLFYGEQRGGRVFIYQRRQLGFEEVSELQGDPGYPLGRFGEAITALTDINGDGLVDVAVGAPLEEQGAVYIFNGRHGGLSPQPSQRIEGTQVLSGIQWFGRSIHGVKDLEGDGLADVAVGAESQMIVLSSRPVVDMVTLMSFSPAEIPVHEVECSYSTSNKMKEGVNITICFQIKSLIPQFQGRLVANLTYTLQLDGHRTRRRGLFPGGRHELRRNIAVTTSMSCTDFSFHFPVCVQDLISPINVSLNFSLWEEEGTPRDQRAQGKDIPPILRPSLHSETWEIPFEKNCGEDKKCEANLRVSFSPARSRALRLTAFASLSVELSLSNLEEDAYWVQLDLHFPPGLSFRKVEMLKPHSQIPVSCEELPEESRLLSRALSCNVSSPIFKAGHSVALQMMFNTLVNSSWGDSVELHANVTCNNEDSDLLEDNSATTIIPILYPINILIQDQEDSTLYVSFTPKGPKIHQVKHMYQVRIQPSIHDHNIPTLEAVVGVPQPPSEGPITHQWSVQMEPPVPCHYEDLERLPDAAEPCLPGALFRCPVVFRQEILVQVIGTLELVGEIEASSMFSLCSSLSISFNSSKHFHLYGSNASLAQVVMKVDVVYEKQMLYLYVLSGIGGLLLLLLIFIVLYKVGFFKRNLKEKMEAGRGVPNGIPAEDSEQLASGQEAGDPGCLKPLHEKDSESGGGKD
ICAM-1-LFA-1 adhesion, sequence (P05107 23-769): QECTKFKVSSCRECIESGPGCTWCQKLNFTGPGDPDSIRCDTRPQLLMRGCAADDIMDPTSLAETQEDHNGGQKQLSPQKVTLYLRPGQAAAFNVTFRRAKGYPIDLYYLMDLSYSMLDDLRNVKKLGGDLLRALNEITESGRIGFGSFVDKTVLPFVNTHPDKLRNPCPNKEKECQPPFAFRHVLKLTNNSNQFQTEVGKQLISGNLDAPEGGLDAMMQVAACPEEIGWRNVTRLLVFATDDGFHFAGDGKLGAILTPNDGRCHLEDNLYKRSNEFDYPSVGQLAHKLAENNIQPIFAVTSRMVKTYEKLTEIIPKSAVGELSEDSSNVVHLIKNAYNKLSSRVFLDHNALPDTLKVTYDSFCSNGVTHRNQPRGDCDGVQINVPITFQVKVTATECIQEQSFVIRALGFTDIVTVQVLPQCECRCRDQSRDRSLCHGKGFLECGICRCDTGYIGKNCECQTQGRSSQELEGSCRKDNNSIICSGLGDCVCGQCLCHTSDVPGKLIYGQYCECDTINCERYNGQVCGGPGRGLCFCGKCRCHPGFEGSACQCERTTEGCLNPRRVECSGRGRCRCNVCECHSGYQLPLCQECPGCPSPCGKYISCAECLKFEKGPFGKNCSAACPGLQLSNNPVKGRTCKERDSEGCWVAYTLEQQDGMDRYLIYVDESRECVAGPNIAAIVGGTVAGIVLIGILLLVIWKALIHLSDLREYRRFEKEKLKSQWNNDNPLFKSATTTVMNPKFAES

[7] = IL 1 (10 U/ml) (4 hr), alone or + cycloheximide 20 »g/ml, actinomycin D 10 »M, tunicamycin 2 »g/ml, mean ± SD
[8] = no cytokine, Control (4 hr) 1524 ± 140, cycloheximide 20 »g/ml, actinomycin D 10 »M, tunicamycin 2 »g/ml, mean ± SD
[9] = no cytokine, Control (4 hr) 11928 ± 600, cycloheximide 20 »g/ml, actinomycin D 10 »M, tunicamycin 2 »g/ml, mean ± SD
[10] = IFN-γ (10 U/ml) (18 hr), alone or + cycloheximide 20 »g/ml, actinomycin D 10 »M, mean ± SD

For polymyxin B, the “¹²⁵I Specifically bound (CPM)” value ([1]; HUVEC, 16 hr, 100 ng/ml rIL-1 beta, 50 ng/ml rIL-1 alpha, 50 ng/ml rTNF alpha, 10 »g/ml LPS, 10 ng/ml rIFN gamma, polymyxin B 10 »g/ml, control 603 ± 11) was 480 ± 23 CPM and the “decreased ICAM-1 expression (basal)” value ([1]; polymyxin B at 10 »g/ml, cells in low endotoxin serum, additional decrease) was 25%.
For tunicamycin, the “¹²⁵I Goat Anti-Mouse IgG Specifically Bound (cpm) anti-HLA-A,B,C” value [2, 7] was 13434 ± 661 cpm, the “¹²⁵I Goat Anti-Mouse IgG Specifically Bound (cpm) anti-ICAM-1” value [2, 7] was 3084 ± 113 cpm and the “inhibited the interleukin 1 effect on ICAM-1 expression” value ([2]; fibroblasts, tunicamycin 2 »g/ml) was 43%. The “¹²⁵I Goat Anti-Mouse IgG Specifically Bound (cpm) anti-ICAM-1” value [2, 8] was 1461 ± 176 cpm and the “¹²⁵I Goat Anti-Mouse IgG Specifically Bound (cpm) anti-HLA-A,B,C” value [2, 9] was 12340 ± 940 cpm.
In the case of `Cc1c2oc3c(C)ccc(C(=O)N[C@@H]4C(=O)N[C@H](C(C)C)C(=O)N5CCC[C@H]5C(=O)N(C)CC(=O)N(C)[C@@H](C(C)C)C(=O)O[C@@H]4C)c3nc-2c(C(=O)N[C@@H]2C(=O)N[C@H](C(C)C)C(=O)N3CCC[C@H]3C(=O)N(C)CC(=O)N(C)[C@@H](C(C)C)C(=O)O[C@@H]2C)c(N)c1=O` [actinomycin D] (I: T[dV]P[Sar][NMeV] / II: T[dV]P[Sar][NMeV]; ester I:1-I:C, II:1-II:C; linker I:N-II:N via Actinocin(9to1)), the “¹²⁵I Goat Anti-Mouse IgG Specifically Bound (cpm) anti-HLA-A,B,C” value [2, 10] is reported as 12089 ± 550 cpm, the “¹²⁵I Goat Anti-Mouse IgG Specifically Bound (cpm) anti-ICAM-1” value [2, 10] is reported as 1326 ± 186 cpm and the “¹²⁵I Goat Anti-Mouse IgG Specifically Bound (cpm) anti-HLA-A,B,C” value [2, 7] is reported as 12294 ± 123 cpm. The “¹²⁵I Goat Anti-Mouse IgG Specifically Bound (cpm) anti-ICAM-1” value [2, 7] was 1613 ± 88 cpm, the “effects of both interleukin 1 and gamma interferon on ICAM-1 expression on fibroblasts” value ([2]; cycloheximide 20 »g/ml, actinomycin D 10 »M) was “abolish” and the “¹²⁵I Goat Anti-Mouse IgG Specifically Bound (cpm) anti-ICAM-1” value [2, 8] was 1590 ± 46 cpm. For the same molecule, the “¹²⁵I Goat Anti-Mouse IgG Specifically Bound (cpm) anti-HLA-A,B,C” value [2, 9] was 12276 ± 608 cpm.
With `Cn1cnc([N+](=O)[O-])c1Sc1ncnc2nc[nH]c12` [Azathioprine] the “³HT Incorporation (CPM)” value [3] was 42,710 CPM and the inhibition at 0.001 µg/mL [4] was 14%.
In the case of `C[C@@H]1C[C@@H]([C@H](O)CC2CC(=O)NC(=O)C2)C(=O)[C@@H](C)C1` [cycloheximide], the “¹²⁵I Goat Anti-Mouse IgG Specifically Bound (cpm) anti-HLA-A,B,C” value [2] is reported as 10675 ± 800 cpm and 10678 ± 471 cpm and 12676 ± 446 cpm and the “¹²⁵I Goat Anti-Mouse IgG Specifically Bound (cpm) anti-ICAM-1” value [2] is reported as 1461 ± 59 cpm and 1513 ± 210 cpm and 1619 ± 381 cpm.
For `CCCCCCCCCCCCCC(=O)O[C@@H]1[C@@H](C)[C@@]2(O)[C@@H](C=C(CO)C[C@]3(O)C(=O)C(C)=C[C@@H]23)[C@@H]2C(C)(C)[C@]12OC(C)=O` [PMA, phorbol myristate acetate], the “JY cells in aggregates” value [5] was 87%.
In the case of GRGESP, the “inhibit ICAM-1-LFA-1 adhesion” value [6] is given as “failure”.
In the case of GRGDSP, the “inhibit ICAM-1-LFA-1 adhesion” value [6] is listed as “failure”.
